Reference: ChEMBL document CHEMBL3885861, “Open TG-GATES”

Organism: Rattus norvegicus
Experiment: Open TG-GATES - Regimen: Daily Repeat
Format: toxicity, organism-based, Sprague-Dawley
Design: regimen Daily Repeat, gender Male, age 6 weeks
Conditions: in vivo, po, 30 mg/kg, route gavage, dose level Low; for APTT / Bas / Eos / Fbg / Hb / Ht / Lym / MCH / MCHC / MCV / Mono / Neu / PT / Plat / RBC / Ret / WBC: tissue Blood; for KIDNEY_L / KIDNEY_R / KIDNEY_TOTAL: tissue Kidney; for LIVER: tissue Liver; for A/G / ALP / ALT / AST / BUN / CRE / Ca / Cl / DBIL / GLC / IP / K / LDH / Na / PL / RALB / TBIL / TC / TG / TP / gamma-GTP: tissue Plasma

In the case of `ClC(Cl)(Cl)Cl` [CARBON TETRACHLORIDE], the TERMINAL_BW (72 h, time 3 day) is reported as 222 g, the APTT (72 h, time 3 day) is reported as 18.7 s and the Bas (72 h, time 3 day) is reported as 0%. It also gave an Eos (72 h, time 3 day) of 1%, a Fbg (72 h, time 3 day) of 237.4 mg/dL and a Hb (72 h, time 3 day) of 13.4 g/dL. The Ht (72 h, time 3 day) was 39.2%, the Lym (72 h, time 3 day) was 77.4% and the MCH (72 h, time 3 day) was 22.1 pg. For the same compound, the MCHC (72 h, time 3 day) was 34.1%, the MCV (72 h, time 3 day) was 64.8 fL and the Mono (72 h, time 3 day) was 2.4%. It also gave a Neu (72 h, time 3 day) of 18.8%, a PT (72 h, time 3 day) of 11.6 s and a Plat (72 h, time 3 day) of 134.7 x10_4/uL. It also gave an RBC (72 h, time 3 day) of 606.8 x10_4/ul, a Ret (72 h, time 3 day) of 7.5% and a WBC (72 h, time 3 day) of 108.2 x10_2/uL. For the same compound, the KIDNEY_L (72 h, time 3 day) was 1 g, the KIDNEY_R (72 h, time 3 day) was 1 g and the KIDNEY_TOTAL (72 h, time 3 day) was 1.9 g. For the same compound, the LIVER (72 h, time 3 day) was 11.4 g, the A/G (72 h, time 3 day) was 1.4 and the ALP (72 h, time 3 day) was 1206 IU/L. The ALT (72 h, time 3 day) was 44.4 IU/L, the AST (72 h, time 3 day) was 65.8 IU/L and the BUN (72 h, time 3 day) was 15.2 mg/dL. For the same compound, the CRE (72 h, time 3 day) was 0.4 mg/dL, the Ca (72 h, time 3 day) was 10.8 mg/dL and the Cl (72 h, time 3 day) was 103.4 meq/L. For the same compound, the DBIL (72 h, time 3 day) was 0.072 mg/dL, the GLC (72 h, time 3 day) was 197.8 mg/dL and the IP (72 h, time 3 day) was 7.3 mg/dL. It also gave a K (72 h, time 3 day) of 4 meq/L, an LDH (72 h, time 3 day) of 206.4 IU/L and a Na (72 h, time 3 day) of 140.6 meq/L. For the same compound, the PL (72 h, time 3 day) was 166 mg/dL, the RALB (72 h, time 3 day) was 3.2 g/dL and the TBIL (72 h, time 3 day) was 0.1 mg/dL. For the same compound, the TC (72 h, time 3 day) was 86.6 mg/dL, the TG (72 h, time 3 day) was 72.6 mg/dL and the TP (72 h, time 3 day) was 5.6 g/dL. The gamma-GTP (72 h, time 3 day) was 1.4 IU/L, the TERMINAL_BW ([…], time 7 day) was 246 g and the TERMINAL_BW ([…], time 14 day) was 300.3 g. The TERMINAL_BW ([…], time 28 day) was 401.4 g, the APTT ([…], time 7 day) was 19.6 s and the Bas ([…], time 7 day) was 0%. It also gave an Eos ([…], time 7 day) of 0.8%, a Fbg ([…], time 7 day) of 232.6 mg/dL and a Hb ([…], time 7 day) of 14.1 g/dL. The Ht ([…], time 7 day) was 41%, the Lym ([…], time 7 day) was 82% and the MCH ([…], time 7 day) was 21.2 pg. The MCHC ([…], time 7 day) was 34.5%, the MCV ([…], time 7 day) was 61.7 fL and the Mono ([…], time 7 day) was 2.6%. The Neu ([…], time 7 day) was 14%, the PT ([…], time 7 day) was 11.9 s and the Plat ([…], time 7 day) was 112.6 x10_4/uL. The RBC ([…], time 7 day) was 666.4 x10_4/ul, the Ret ([…], time 7 day) was 5.5% and the WBC ([…], time 7 day) was 96.8 x10_2/uL. The APTT ([…], time 14 day) was 20.3 s, the Bas ([…], time 14 day) was 0% and the Eos ([…], time 14 day) was 0.8%. For the same compound, the Fbg ([…], time 14 day) was 238.4 mg/dL, the Hb ([…], time 14 day) was 14.6 g/dL and the Ht ([…], time 14 day) was 43%. The Lym ([…], time 14 day) was 80%, the MCH ([…], time 14 day) was 20.1 pg and the MCHC ([…], time 14 day) was 33.9%. For the same compound, the MCV ([…], time 14 day) was 59.4 fL, the Mono ([…], time 14 day) was 2% and the Neu ([…], time 14 day) was 16.8%. For the same compound, the PT ([…], time 14 day) was 12 s, the Plat ([…], time 14 day) was 113.3 x10_4/uL and the RBC ([…], time 14 day) was 724.8 x10_4/ul. It also gave a Ret ([…], time 14 day) of 3.7%, a WBC ([…], time 14 day) of 110.3 x10_2/uL and an APTT ([…], time 28 day) of 21.2 s. The Bas ([…], time 28 day) was 0%, the Eos ([…], time 28 day) was 1% and the Fbg ([…], time 28 day) was 238 mg/dL. For the same compound, the Hb ([…], time 28 day) was 14.8 g/dL, the Ht ([…], time 28 day) was 43.3% and the Lym ([…], time 28 day) was 85.4%. For the same compound, the MCH ([…], time 28 day) was 19.1 pg, the MCHC ([…], time 28 day) was 34.2% and the MCV ([…], time 28 day) was 55.8 fL. The Mono ([…], time 28 day) was 2.8%, the Neu ([…], time 28 day) was 10.2% and the PT ([…], time 28 day) was 12.3 s. The Plat ([…], time 28 day) was 113.3 x10_4/uL, the RBC ([…], time 28 day) was 776.8 x10_4/ul and the Ret ([…], time 28 day) was 2.8%. For the same compound, the WBC ([…], time 28 day) was 104.8 x10_2/uL, the KIDNEY_L ([…], time 7 day) was 1 g and the KIDNEY_R ([…], time 7 day) was 1 g. It also gave a KIDNEY_TOTAL ([…], time 7 day) of 2.1 g, a KIDNEY_L ([…], time 14 day) of 1.2 g and a KIDNEY_R ([…], time 14 day) of 1.2 g. For the same compound, the KIDNEY_TOTAL ([…], time 14 day) was 2.3 g, the KIDNEY_L ([…], time 28 day) was 1.3 g and the KIDNEY_R ([…], time 28 day) was 1.3 g. The KIDNEY_TOTAL ([…], time 28 day) was 2.7 g, the LIVER ([…], time 7 day) was 12.4 g and the LIVER ([…], time 14 day) was 14.4 g. The LIVER ([…], time 28 day) was 19.2 g, the A/G ([…], time 7 day) was 1.6 and the ALP ([…], time 7 day) was 1004.8 IU/L. For the same compound, the ALT ([…], time 7 day) was 39.2 IU/L, the AST ([…], time 7 day) was 70.8 IU/L and the BUN ([…], time 7 day) was 14.8 mg/dL. It also gave a CRE ([…], time 7 day) of 0.4 mg/dL, a Ca ([…], time 7 day) of 10.7 mg/dL and a Cl ([…], time 7 day) of 104.8 meq/L. For the same compound, the DBIL ([…], time 7 day) was 0.076 mg/dL, the GLC ([…], time 7 day) was 200.8 mg/dL and the IP ([…], time 7 day) was 7.7 mg/dL. It also gave a K ([…], time 7 day) of 4.1 meq/L, an LDH ([…], time 7 day) of 202 IU/L and a Na ([…], time 7 day) of 141.6 meq/L. For the same compound, the PL ([…], time 7 day) was 159.8 mg/dL, the RALB ([…], time 7 day) was 3.5 g/dL and the TBIL ([…], time 7 day) was 0.1 mg/dL. It also gave a TC ([…], time 7 day) of 75.2 mg/dL, a TG ([…], time 7 day) of 87.2 mg/dL and a TP ([…], time 7 day) of 5.6 g/dL. The gamma-GTP ([…], time 7 day) was 1.2 IU/L, the A/G ([…], time 14 day) was 1.5 and the ALP ([…], time 14 day) was 898.4 IU/L. The ALT ([…], time 14 day) was 42.2 IU/L, the AST ([…], time 14 day) was 75 IU/L and the BUN ([…], time 14 day) was 15.4 mg/dL. It also gave a CRE ([…], time 14 day) of 0.4 mg/dL, a Ca ([…], time 14 day) of 10.5 mg/dL and a Cl ([…], time 14 day) of 103.4 meq/L. It also gave a DBIL ([…], time 14 day) of 0.056 mg/dL, a GLC ([…], time 14 day) of 201.4 mg/dL and an IP ([…], time 14 day) of 8 mg/dL. The K ([…], time 14 day) was 3.7 meq/L, the LDH ([…], time 14 day) was 207.4 IU/L and the Na ([…], time 14 day) was 141.6 meq/L. The PL ([…], time 14 day) was 138.6 mg/dL, the RALB ([…], time 14 day) was 3.6 g/dL and the TBIL ([…], time 14 day) was 0.1 mg/dL. It also gave a TC ([…], time 14 day) of 67.4 mg/dL, a TG ([…], time 14 day) of 55 mg/dL and a TP ([…], time 14 day) of 6 g/dL. The gamma-GTP ([…], time 14 day) was 1 IU/L, the A/G ([…], time 28 day) was 1.3 and the ALP ([…], time 28 day) was 634.2 IU/L. It also gave an ALT ([…], time 28 day) of 40 IU/L, an AST ([…], time 28 day) of 75.2 IU/L and a BUN ([…], time 28 day) of 17.2 mg/dL. It also gave a CRE ([…], time 28 day) of 0.4 mg/dL, a Ca ([…], time 28 day) of 10.6 mg/dL and a Cl ([…], time 28 day) of 102.2 meq/L. The DBIL ([…], time 28 day) was 0.072 mg/dL, the GLC ([…], time 28 day) was 211.2 mg/dL and the IP ([…], time 28 day) was 6.6 mg/dL. It also gave a K ([…], time 28 day) of 3.9 meq/L, an LDH ([…], time 28 day) of 228 IU/L and a Na ([…], time 28 day) of 140.6 meq/L. The PL ([…], time 28 day) was 132 mg/dL, the RALB ([…], time 28 day) was 3.5 g/dL and the TBIL ([…], time 28 day) was 0.1 mg/dL. For the same compound, the TC ([…], time 28 day) was 59.6 mg/dL, the TG ([…], time 28 day) was 86.6 mg/dL and the TP ([…], time 28 day) was 6.2 g/dL. For the same compound, the gamma-GTP ([…], time 28 day) was 0.8 IU/L.
